The values below come from US11691962B2 (eXIthera Pharmaceuticals, Inc., priority 2018, dated 2023).

One series deals with Factor Xa (Homo sapiens (Human), UniProt P00742). As to the kind of experiment: Dose response assay for protease inhibitors: Factor Xa. The series is classed as biochemical. To be noted: selectivity, Factor Xa over Factor XIa. A digest of the protocol:
(§1)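 Glp-Pro-Arg-AMC substrate (thrombin, trypsin) or Pro-Phe-Arg-AMC/Boc-Leu-Gly-Arg-AMC (Factor Xa), diluted to 100 μM, in 20 mM Hepes pH 7.4, 150 mM NaCl, 0.02% Tween 20; enzyme diluted to 0.5 nM before addition. Two-fold serial compound dilutions; kinetic reads at 30° C. Data yield IC50 and Kon.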

Series [1] in a line: Aqueous solubility in PBS by HPLC-UV/VIS. The series is classed as physicochemical. The following applies: PBS pH 7.4, 2% DMSO, 24 h at room temperature; for solubility at 24 h: phosphate buffered saline, aqueous buffer, kinetic from dmso stock. On the procedure: The following procedure was used to determine the aqueous solubility of a test compound in phosphate buffered saline (PBS-NaCl 137 mM, KCl 2.7 mM, Na2HPO4 8.1 mM, KH2PO4 1.5 mM, pH 7.4) in 96-well plate format by HPLC-UV/VIS analysis. The test compound was prepared at 200 μM in PBS from a 10 mM DMSO stock solution. The final DMSO concentration was 2%. The PBS buffer samples were mixed thoroughly followed by incubation at room temperature for 24 h. At the end of the incubation, the PBS buffer samples were centrifuged and supernatants analyzed by HPLC. The aqueous solubility (μM) of the test compound in PBS was determined by comparing the peak area of the principal peak in the calibration standard (200 μM) with the peak area of the corresponding peak in each of the PBS samples. The range of the assay was approximately 0.5 μM to 200 μM. The reference compounds used in each assay were metoprolol, rifampicin, ketoconazole, phenytoin, haloperidol, simvastatin, diethylstilbestrol, and tamoxifen ranking from fully soluble (200 μM) to poorly soluble (<1 μM).

Series [2] is described as follows: Caco-2 cell permeability assay. The series is classed as in vitro ADME, human. To be noted: human, 37° C.; for Papp A→B at 60 min, 10 μM: Caco-2, apical to basolateral; for Papp B→A at 40 min, 10 μM: Caco-2, basolateral to apical. As for the experimental part: The following procedure was used to determine the ability of a test compound to cross Caco-2 cells (human intestinal epithelial cells derived from a colorectal adenocarcinoma). The cells were seeded at 1×10^5 cells/cm^2 in 96-well Multiscreen™ plates (Millipore). Permeability assays were performed with the cells at days 21-25 post-seeding. Cells are typically used for 15 consecutive passages in culture.
This assay can be performed in either the apical to basolateral (A-B) or basolateral to apical (B-A) direction. The test compound was prepared at 10 μM in HBSS-MES (pH 6.5) or HBSS-HEPES (pH 7.4) with a final DMSO concentration of 1%. The working solution was then centrifuged and the supernatant added to the donor side. The assay plate was incubated at 37° C. with gentle shaking for 60 min or 40 min for the A-B or B-A assay, respectively. Samples were aliquoted from the donor side at time zero and the end point, and from the receiver side at the end point.
Reference compounds, propranolol (highly permeable), labetalol (moderately permeable), ranitidine (poorly permeable), and colchicine (P-glycoprotein substrate) were included in each assay.
Samples are analyzed by HPLC-MS/MS using selected reaction monitoring. The HPLC system consists of a binary LC pump with autosampler, a C-18 column, and a gradient.
The apparent permeability coefficient (Papp) of the test compound (Equation 2) and its recovery (Equation 3) are calculated as follows:
[formula] wherein A is the surface area of the cell monolayer (0.11 cm^2), C is concentration of the test compound expressed as peak area, D denotes donor, and R is receiver. “0”, “mid,” and “end” denote time at zero, mid-point, and end of the incubation, respectively. Δt is the incubation time. V is the volume of the donor or receiver.
This is most likely due to non-specific binding or degradation.

The next series relates to Trypsin. As to the kind of experiment: Dose response assay for protease inhibitors: trypsin. The series is classed as biochemical. The following applies: selectivity, trypsin over Factor XIa. A digest of the protocol: as §1
The target of a further series is Thrombin (Homo sapiens (Human), UniProt P00734). As to the kind of experiment: Dose response assay for protease inhibitors: thrombin. The series is classed as biochemical. To be noted: selectivity, thrombin over Factor XIa. A digest of the protocol:
as §1

Chain of Factor Xa (P00742 235-488): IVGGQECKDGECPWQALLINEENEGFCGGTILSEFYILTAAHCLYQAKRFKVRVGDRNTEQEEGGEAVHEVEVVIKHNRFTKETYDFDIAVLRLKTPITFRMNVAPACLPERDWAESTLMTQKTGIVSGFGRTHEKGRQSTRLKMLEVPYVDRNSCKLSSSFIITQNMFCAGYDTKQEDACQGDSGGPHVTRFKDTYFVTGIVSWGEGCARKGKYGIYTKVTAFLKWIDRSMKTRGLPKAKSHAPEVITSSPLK
Chain of Factor Xa (P00742 41-179 partner): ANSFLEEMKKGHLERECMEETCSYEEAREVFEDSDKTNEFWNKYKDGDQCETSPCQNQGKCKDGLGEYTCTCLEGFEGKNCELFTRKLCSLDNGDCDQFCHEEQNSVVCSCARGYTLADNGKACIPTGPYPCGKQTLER

Regarding `CC[C@@H](NC(=O)N1C(=O)[C@H](Cc2ccnc(N)c2)[C@H]1C(=O)N(C)c1ccn(C)n1)c1ccccc1` [Compound 1-3, (2S,3R)-3-((2-aminopyridin-4-yl)methyl)-N2-(1-methyl-1H-pyrazol-3-yl)-N1-((R)-1-phenylpropyl)-N2-methyl-4-oxoazetidine-1,2-dicarboxamide], on Factor Xa, the “Ratio: FXa/FXIa” value is listed as “I (“I” indicates > 500)”. Moreover, the solubility at 24 h in series [1] was more than 100 µM. Besides, in series [2], the Papp A→B at 60 min, 10 μM was less than 10 ×10⁻⁶ cm/s and the Papp B→A at 40 min, 10 μM was 31 to 50 ×10⁻⁶ cm/s. Besides, in the series with Trypsin, the “Ratio: Trypsin/FXIa” value is “G (“G” indicates 1-100)”. In addition, at Thrombin, the “Ratio: Thrombin/FXIa” value is reported as “H (“H” indicates 101-1000)”.

In the case of `CC[C@@H](NC(=O)N1C(=O)[C@H](Cc2ccnc(N)c2)[C@H]1C(=O)N(C)c1ccnn1C)c1cccc(Cl)c1` [Compound 1-4, (2S,3R)-3-((2-aminopyridin-4-yl)methyl)-N2-(1-methyl-1H-pyrazol-5-yl)-N1-((R)-1-(3-chlorophenyl)propyl)-N2-methyl-4-oxoazetidine-1,2-dicarboxamide], at Factor Xa, the “Ratio: FXa/FXIa” value is given as “I (“I” indicates > 500)”. The solubility at 24 h in series [1] was more than 100 µM. Moreover, in series [2], the Papp A→B at 60 min, 10 μM was in the range of 11 to 30 ×10⁻⁶ cm/s and the apparent permeability from basolateral to apical (Papp B→A) at 40 min, 10 μM was 11 to 30 ×10⁻⁶ cm/s. For the same compound, in the series with Trypsin, the “Ratio: Trypsin/FXIa” value is on record as “G (“G” indicates 1-100)”. Besides, the “Ratio: Thrombin/FXIa” value on Thrombin is “I (“I” indicates > 500)”.

On to `CC[C@@H](NC(=O)N1C(=O)[C@H](Cc2ccnc(N)c2)[C@H]1C(=O)N(C)c1cscn1)c1ccccc1` [Compound 1-8, (2S,3R)-3-((2-aminopyridin-4-yl)methyl)-N2-(4-thiazolyl)-N1-((R)-1-phenylpropyl)-N2-methyl-4-oxoazetidine-1,2-dicarboxamide], for which the “Ratio: FXa/FXIa” value at Factor Xa is “H (“H” indicates 101-1000)”. Also, the solubility at 24 h in series [1] is more than 100 µM. In series [2], this compound gave a Papp A→B at 60 min, 10 μM of less than 10 ×10⁻⁶ cm/s and an apparent permeability from basolateral to apical (Papp B→A) at 40 min, 10 μM of 31 to 50 ×10⁻⁶ cm/s. Further, the “Ratio: Trypsin/FXIa” value with Trypsin is “G (“G” indicates 1-100)”. At Thrombin, the “Ratio: Thrombin/FXIa” value is given as “G (“G” indicates 1-100)”.

Take `CC[C@@H](NC(=O)N1C(=O)[C@H](Cc2ccnc(N)c2)[C@H]1C(=O)N(C)c1cccs1)c1ccccc1` [Compound 1-10, (2S,3R)-3-((2-aminopyridin-4-yl)methyl)-N2-(thiophen-2-yl)-N1-((R)-1-phenylpropyl)-N2-methyl-4-oxoazetidine-1,2-dicarboxamide]: the “Ratio: FXa/FXIa” value on Factor Xa is “H (“H” indicates 101-1000)”. In series [1], this compound gave a solubility at 24 h of more than 100 µM. In series [2], this compound yielded a Papp A→B at 60 min, 10 μM of 11 to 30 ×10⁻⁶ cm/s and a Papp B→A at 40 min, 10 μM of 11 to 30 ×10⁻⁶ cm/s. Also, the “Ratio: Trypsin/FXIa” value in the series on Trypsin is reported as “G (“G” indicates 1-100)”. In addition, the “Ratio: Thrombin/FXIa” value at Thrombin is given as “H (“H” indicates 101-1000)”.

In the case of `CC[C@@H](NC(=O)N1C(=O)[C@H](Cc2ccnc(N)c2)[C@H]1C(=O)N(C)c1nccn1C)c1ccccc1` [Compound 1-13, (2S,3R)-3-((2-aminopyridin-4-yl)methyl)-N2-(1-methyl-1H-imidazol-2-yl)-N1-((R)-1-phenylpropyl)-N2-methyl-4-oxoazetidine-1,2-dicarboxamide], the “Ratio: FXa/FXIa” value on Factor Xa is “I (“I” indicates > 500)”. Also, the solubility at 24 h in series [1] was more than 100 µM. In series [2], the apical-to-basolateral permeability (Papp A→B) at 60 min, 10 μM is less than 10 ×10⁻⁶ cm/s and the Papp B→A at 40 min, 10 μM is 11 to 30 ×10⁻⁶ cm/s. Further, the “Ratio: Trypsin/FXIa” value with Trypsin is “G (“G” indicates 1-100)”. At Thrombin, the “Ratio: Thrombin/FXIa” value is “I (“I” indicates > 500)”.

Consider `CC[C@@H](NC(=O)N1C(=O)[C@H](Cc2cc(C)nc(N)c2)[C@H]1C(=O)N(C)c1cnn(C)c1)c1cccc(Cl)c1` [Compound 1-15, (2S,3R)-3-((2-amino-6-methylpyridin-4-yl)methyl)-N2-(1-methyl-1H-pyrazol-4-yl)-N1-((R)-1-(3-chlorophenyl)propyl)-N2-methyl-4-oxoazetidine-1,2-dicarboxamide], for which the “Ratio: FXa/FXIa” value on Factor Xa is given as “H (“H” indicates 101-1000)”. This compound registered a solubility at 24 h in series [1] of more than 100 µM. In series [2], this compound yielded a Papp A→B at 60 min, 10 μM of less than 10 ×10⁻⁶ cm/s and a Papp B→A at 40 min, 10 μM of 11 to 30 ×10⁻⁶ cm/s. The “Ratio: Trypsin/FXIa” value in the series on Trypsin is “G (“G” indicates 1-100)”. Further, the “Ratio: Thrombin/FXIa” value on Thrombin was “G (“G” indicates 1-100)”.

As for `CC[C@@H](NC(=O)N1C(=O)[C@H](Cc2ccnc(N)c2)[C@H]1C(=O)N(C)c1cscn1)c1cccc(Cl)c1` [Compound 1-17, (2S,3R)-3-((2-aminopyridin-4-yl)methyl)-N2-(4-thiazolyl)-N1-((R)-1-(3-chlorophenyl)propyl)-N2-methyl-4-oxoazetidine-1,2-dicarboxamide], at Factor Xa, the “Ratio: FXa/FXIa” value was “H (“H” indicates 101-1000)”. The same compound had a solubility at 24 h in series [1] of more than 100 µM. Besides, in series [2], the Papp A→B at 60 min, 10 μM was in the range of 11 to 30 ×10⁻⁶ cm/s and the Papp B→A at 40 min, 10 μM was 11 to 30 ×10⁻⁶ cm/s. Further, the “Ratio: Trypsin/FXIa” value with Trypsin was “G (“G” indicates 1-100)”. The “Ratio: Thrombin/FXIa” value on Thrombin is recorded as “H (“H” indicates 101-1000)”.

Turning to `CC[C@@H](NC(=O)N1C(=O)[C@H](Cc2ccnc(N)c2)[C@H]1C(=O)N(C)c1cnn(C)c1)c1ccc(C)nc1` [Compound 1-18, (2S,3R)-3-((2-aminopyridin-4-yl)methyl)-N2-(1-methyl-1H-pyrazol-4-yl)-N1-((R)-1-(6-methylpyridin-3-yl)propyl)-N2-methyl-4-oxoazetidine-1,2-dicarboxamide], the “Ratio: FXa/FXIa” value on Factor Xa is reported as “H (“H” indicates 101-1000)”. Also, in series [1], the solubility at 24 h was more than 100 µM. In series [2], the apical-to-basolateral permeability (Papp A→B) at 60 min, 10 μM is less than 10 ×10⁻⁶ cm/s and the Papp B→A at 40 min, 10 μM was less than 10 ×10⁻⁶ cm/s. The “Ratio: Trypsin/FXIa” value with Trypsin is “G (“G” indicates 1-100)”. At Thrombin, the “Ratio: Thrombin/FXIa” value was “G (“G” indicates 1-100)”.

With `CC[C@@H](NC(=O)N1C(=O)[C@H](Cc2cc(C)nc(N)c2)[C@H]1C(=O)N(C)c1ccn(C)n1)c1cccc(C)c1` [Compound 1-22, (2S,3R)-3-((2-amino-6-methylpyridin-4-yl)methyl)-N2-(1-methyl-1H-pyrazol-3-yl)-N1-((R)-1-(3-methylphenyl)propyl)-N2-methyl-4-oxoazetidine-1,2-dicarboxamide], the “Ratio: FXa/FXIa” value on Factor Xa is reported as “H (“H” indicates 101-1000)”. Moreover, the solubility at 24 h in series [1] is more than 100 µM. In series [2], this compound displayed an apparent permeability from apical to basolateral (Papp A→B) at 60 min, 10 μM of less than 10 ×10⁻⁶ cm/s and a Papp B→A at 40 min, 10 μM of 11 to 30 ×10⁻⁶ cm/s. In addition, in the series with Trypsin, the “Ratio: Trypsin/FXIa” value is “G (“G” indicates 1-100)”. Moreover, on Thrombin, the “Ratio: Thrombin/FXIa” value is “H (“H” indicates 101-1000)”.

For the compound `CN(C(=O)[C@@H]1[C@@H](Cc2ccnc(N)c2)C(=O)N1C(=O)N[C@@H](C1CCCCC1)C(F)(F)F)c1ccn(C)n1` [Compound 1-32, (2S,3R)-3-((2-aminopyridin-4-yl)methyl)-N2-(1-methyl-1H-pyrazol-3-yl)-N1-((S)-1-cyclohexyl-2,2,2-trifluoroethyl)-N2-methyl-4-oxoazetidine-1,2-dicarboxamide], the “Ratio: FXa/FXIa” value on Factor Xa is on record as “I (“I” indicates > 500)”. The solubility at 24 h in series [1] was more than 100 µM. In addition, in series [2], the Papp A→B at 60 min, 10 μM lay in the range of 11 to 30 ×10⁻⁶ cm/s and the Papp B→A at 40 min, 10 μM lay in the range of 11 to 30 ×10⁻⁶ cm/s. For the same compound, the “Ratio: Trypsin/FXIa” value in the series on Trypsin is recorded as “G (“G” indicates 1-100)”. The “Ratio: Thrombin/FXIa” value on Thrombin is “H (“H” indicates 101-1000)”.

As to “(2S,3R)-3-((2-amino-6-methylpyridin-4-yl)methyl)-N2-(1-methyl-1H-imidazol-2-yl)-N1-((R)-1-(3-fluorophenyl)propyl)-N2-methyl-4-oxoazetidine-1,2-dicarboxamide [Compound 1-120]”, the “Ratio: FXa/FXIa” value on Factor Xa is “I (“I” indicates > 500)”. For the same compound, the “Aqueous Solubility (uM, in PBS)” value in series [1] is on record as “W (“W” indicates > 100 μM)”. In addition, in the series on Trypsin, the “Ratio: Trypsin/FXIa” value is reported as “G (“G” indicates 1-100)”. Also, the “Ratio: Thrombin/FXIa” value at Thrombin is on record as “H (“H” indicates 101-1000)”.
